Assay results reported in patent US12365658B2, “Benzothia(di)azepine compounds and their use as bile acid modulators” (Albireo AB, priority 2021, dated 2025).

What was measured:
Caco-2 cells = assay: Bidirectional permeability assay (Caco-2 cells); type: in vitro ADME; conditions: 10 μM in FaSSIF buffer, 120 minutes
Procedure: Bidirectional Permeability Assay (Caco-2 Cells)
Caco-2 cells (Evotec) were seeded at a density of 70,000 cells/well in Millicell® 24-well cell culture insert plates and maintained in an incubator (37° C., 5% CO2, 95% RH) for 21 days with media change on alternate days.
Stock solutions (10 mM) of the test compounds, atenolol (low permeability marker), propranolol (high permeability marker) and digoxin (substrate for P-gp transport pathway) were prepared in dimethylsulfoxide (DMSO). An intermediate stock solution (1 mM) was prepared by diluting 10 μL of 10 mM master stock solution with 90 μL of neat DMSO. A working stock solution (10 μM) was prepared by diluting 50 μL of 1 mM with 4950 μL of FaSSIF buffer. Post addition of compounds to the FaSSIF, samples were subjected to sonication for 2 hours, and centrifuged at 4000 RPM for 30 minutes at 37° C. The 4 mL of resultant supernatant was directly used in the assay. The final DMSO concentration in the transport experiments was 1%.
On the day of assay, Caco-2 monolayers were washed twice with transport buffer (HBSS, pH 7.4) and pre-incubated for 30 min (37° C., 5% CO2, 95% RH) in an incubator. The electrical resistance of the monolayers was measured with a Millicell®-ERS system. Monolayers with trans-epithelial electrical resistance (TEER) values greater than 350 ohm·cm^2 were selected for the assay.
The assay was conducted in absorptive direction (A2B) and secretory (B2A) directions. Transport experiments were initiated by addition of transport assay buffer (FaSSIF buffer prepared in HBSS) consisting of compounds to the donor compartment (apical chamber A-B; basolateral chamber B-A) in duplicate (n=2) wells. Drug free HBSS buffer (pH 7.4) containing 1% bovine serum albumin (BSA) was introduced to the receiver (A-B-basolateral; B-A-Apical) compartments. The volumes of apical and basolateral compartments were 0.4 and 0.8 mL, respectively. After adding dosing solution, plates were incubated in an incubator for 120 minutes at 37° C. After 120 minutes, donor and receiver samples were collected and matrix matched (1:1, 30 μL study sample+30 μL blank buffer) with the opposite buffer. Dosing samples matrix matched (1:1, 30 μL study sample+30 μL blank buffer) with the opposite buffer. Samples were processed by adding acetonitrile containing internal standard (60 μL study sample+200 μL acetonitrile containing internal standard-Tolbutamide, 500 ng/mL). Samples were vortexed and centrifuged at 4000 rpm for 10 minutes. The obtained supernatant (100 μL) was diluted with 100 μL of water and transferred to fresh 96 well plates. The concentration of compounds in the samples was analyzed by liquid chromatography tandem mass spectrometry (LC-MS/MS) method using discovery grade bio-analytical method, as applicable.
The mean apparent permeability (Papp, ×10^−6 cm/sec) of the test compounds, atenolol, propranolol and digoxin were calculated as follows:
where dq/dt=rate of transport (rate of transport of compound in the receiver compartment), C0=initial concentration in the donor compartment, A=surface area of the effective filter membrane.

Human LBAT = molecular target: T1, Human LBAT (Homo sapiens, UniProt Q14973); assay: LBAT (h/m) assay, human LBAT-overexpressing cells, 3H-taurocholic acid uptake; type: cell-based; conditions: 0.3 μM 3H-taurocholic acid and 7.5 μM cold taurocholic acid, 20 minutes, read-out: hLBAT IC50
T1 construct: expressed in transfected cells; kept under Geneticin selection
T1 sequence (Q14973 1-349): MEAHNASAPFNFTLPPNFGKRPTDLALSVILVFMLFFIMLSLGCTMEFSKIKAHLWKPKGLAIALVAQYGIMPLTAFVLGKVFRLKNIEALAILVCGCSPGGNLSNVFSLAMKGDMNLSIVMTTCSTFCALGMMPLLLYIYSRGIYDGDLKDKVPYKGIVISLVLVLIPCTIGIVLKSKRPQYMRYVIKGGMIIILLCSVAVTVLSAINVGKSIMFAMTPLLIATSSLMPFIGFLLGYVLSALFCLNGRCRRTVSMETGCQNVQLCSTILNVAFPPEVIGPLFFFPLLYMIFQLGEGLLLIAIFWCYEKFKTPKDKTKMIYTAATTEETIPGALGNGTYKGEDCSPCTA
Procedure: LBAT (h/m) Assay Protocol
20,000 cells (Human or Mouse LBAT-overexpressing cells) were seeded in 96-wells plate (Corning CLS3809) in 100 μL MEM-alpha medium (Gibco 12571-063) supplemented with 10% FBS (Gibco 10438026) containing Geneticin (Gibco 10131-027) (1 mg/mL) and incubated at 37° C. in 5% CO2 for 24 hours. After incubation, media was decanted from the wells and cells were washed two times with 300 μL of basal MEM-alpha medium (FBS-free). After decanting basal MEM-alpha medium each time, plates were tapped against paper towel to ensure maximum removal of residual media.
For human LBAT, incubation mix was prepared by adding test inhibitor dilutions (3-fold serial dilution in DMSO (Sigma D2650), 10 points) in MEM-alpha (without FBS) containing 0.3 μM 3H-taurocholic acid (ARC ART-1368) and 7.5 μM cold taurocholic acid (Sigma T4009) (maintaining 0.2% final DMSO concentration). For mouse LBAT, incubation mix was prepared by adding test inhibitor dilutions (3-fold serial dilution in DMSO, 10 points) in MEM-alpha (without FBS) containing 0.3 μM 3H-taurocholic acid and 25 μM cold taurocholic acid maintaining 0.2% final DMSO concentration).
50 μL of incubation mix containing test inhibitors was then added to the wells (in duplicate) and the plates were incubated for 20 minutes in a CO2 incubator at 37° C. After incubation, the reaction was stopped by keeping the plates on ice water mix for 2-3 minutes and then the incubation mix was aspirated completely from the wells. The wells were washed two times with 250 μL of chilled unlabelled 1 mM taurocholic acid dissolved in HEPES (Gibco 15630080)-buffered (10 mM) HBSS (Gibco 14175079) (pH 7.4). The plates were tapped against a paper towel after every wash to ensure maximum removal of blocking buffer.
100 μL of MicroScint-20 (PerkinElmer 6013621) was added to the wells and kept overnight at room temperature before reading the plates in TopCount NXT™ Microplate Scintillation and Luminescence Counter from PerkinElmer under 3H Test protocol (set at 120 seconds reading time per well, with normal plate orientation).
Preparation of Test Compound Dilutions
All test compounds were provided in powder form at room temperature. 10 mM DMSO stocks of the test compounds were prepared, aliquoted and stored at −20° C. From the 10 mM DMSO stock of the compounds, a 3-fold serial dilution in DMSO was prepared to get a total of 10 dilutions of the test compounds. 0.5 μL of this dilution in DMSO was added to 250 μL of FBS-free basal media containing 3H-taurocholic acid and cold taurocholic acid to prepare the incubation mixture.

Bioavailability studies = type: in vivo, Male mice (C57BL/6 or CD1) or Wistar rats; conditions: male, plasma; single intravenous dose 1 mg/kg and single oral dose 10 mg/kg; species per compound not given
Procedure: Male mice (C57BL/6 or CD1) or Wistar rats of 8-9 weeks old were used. For each test compound, two groups of 3 animals each were used. One group was administered a single intravenous dose of 1 mg/kg (vehicle 100% DMSO) through the tail vein and the other group was administered a single oral dose of 10 mg/kg through gavage needle. The group that was administered an oral dose was fasted overnight. Blood samples were collected after 0.083, 0.25, 0.5, 1, 2, 4, 6, 8 and 24 hours following intravenous administration, and after 0.25, 0.5, 1, 2, 4, 6, 8 and 24 hours following oral administration. Blood samples were taken from saphenous vein. 0.2% EDTA was used as the anticoagulant. The samples were analyzed by a discovery grade bioanalytical method developed for the estimation of test compound in plasma, using an LC-MS/MS system.

Permeability (Caco-2) Papp A2B (Caco-2 cells; absorptive direction (A2B)): 12.2 ×10⁻⁶ cm/s
Permeability (Caco-2) Papp B2A (Caco-2 cells; secretory direction (B2A)): 7.3 ×10⁻⁶ cm/s
IC50 (Human LBAT): 3 nM
bioavailability (Bioavailability studies): 100%
Structure (SMILES): CCCCC1CN(c2ccc(F)cc2)c2cc(SC)c(OCC(C)(C)C(=O)O)cc2S(=O)(=O)N1C (single isomer, unassigned) [14, enantiomer 2]
